ChEMBL document CHEMBL1697781, “Assessment of the health effects of chemicals in humans: II. Construction of an adverse effects database for QSAR modeling” (Curr Drug Discov Technol, 2004)

Key:
Conditions in all cases: human; call rule not given here
[1] = tested on: Hepatotoxicity; experiment: FDA HLAED, lactate dehydrogenase (LDH) increase
[2] = tested on: Hepatotoxicity; experiment: FDA HLAED, serum glutamic pyruvic transaminase (SGPT) increase
[3] = tested on: Hepatotoxicity; experiment: FDA HLAED, liver enzyme composite activity
[4] = tested on: Hepatotoxicity; experiment: FDA HLAED, serum glutamic oxaloacetic transaminase (SGOT) increase
[5] = tested on: Hepatotoxicity; experiment: FDA HLAED, gamma-glutamyl transferase (GGT) increase
[6] = tested on: Hepatotoxicity; experiment: FDA HLAED, alkaline phosphatase increase
Wherever GGT Increase - Index Value is given: reference of the scale not given here.
Wherever LDH Increase - Index Value is given: reference of the scale not given here.

| Structure (SMILES) | LDH Increase - Activity Score [1] | LDH Increase - Index Value [1] | LDH Increase - Number of Reports [1] | SGPT Increase - Activity Score [2] | SGPT Increase - Index Value [2] | SGPT Increase - Number of Reports [2] | Composite Activity - Active [3] | Composite Activity - Marginal [3] | Composite Activity - Score [3] | SGOT Increase - Activity Score [4] | SGOT Increase - Index Value [4] | SGOT Increase - Number of Reports [4] | GGT Increase - Activity Score [5] | GGT Increase - Index Value [5] | GGT Increase - Number of Reports [5] | Alkaline Phosphatase Increase - Activity Score [6] | Alkaline Phosphatase Increase - Index Value [6] | Alkaline Phosphatase Increase - Number of Reports [6] | Composite Activity - Active ([3]; Liver) | Composite Activity - Marginal ([3]; Liver) | further results |
| --- | --- | --- | --- | --- | --- | --- | --- | --- | --- | --- | --- | --- | --- | --- | --- | --- | --- | --- | --- | --- | --- |
| CC(=O)OCC(CCn1cnc2cnc(N)nc21)COC(C)=O [FAMCICLOVIR] | Inactive | 0 | < 4 | Inactive | 0 | < 4 | 0 | 0 | Inactive | Inactive | 0 | < 4 | Inactive | 0 | < 4 | Inactive | 0 | < 4 |  |  |  |
| NC(N)=Nc1nc(CSCCC(N)=NS(N)(=O)=O)cs1 [FAMOTIDINE] | Inactive | 0.4 | >= 4 | Inactive | 0.7 | >= 4 |  |  |  | Inactive | 0.8 | >= 4 | Inactive | 0.4 | >= 4 | Inactive | 0.8 | >= 4 | 0 | 0 | Composite Activity - Score ([3]; Liver): Inactive |
| NC(=O)OCC(COC(N)=O)c1ccccc1 [FELBAMATE] | Active | 8.3 | >= 4 | Active | 11.7 | >= 4 | 5 | 0 | Active | Active | 11.7 | >= 4 | Active | 15.8 | >= 4 | Active | 15 | >= 4 |  |  |  |
| CCOC(=O)C1=C(C)NC(C)=C(C(=O)OC)C1c1cccc(Cl)c1Cl (configuration not stated) [FELODIPINE] | Inactive | 0.3 | < 4 | Inactive | 0.3 | < 4 | 0 | 0 | Inactive | Inactive | 0.3 | < 4 | Inactive | 0.3 | < 4 | Inactive | 0.6 | < 4 |  |  |  |
| CC(C)(C(=O)O)c1ccc(C(O)CCCN2CCC(C(O)(c3ccccc3)c3ccccc3)CC2)cc1 (configuration not stated) [FEXOFENADINE] | Inactive | 0 | < 4 | Inactive | 0 | < 4 |  |  |  | Inactive | 0 | < 4 | Inactive | 0 | < 4 | Inactive | 0 | < 4 | 0 | 0 | Composite Activity - Score ([3]; Liver): Inactive |
| CC(C)(C)NC(=O)[C@H]1CC[C@H]2[C@@H]3CC[C@H]4NC(=O)C=C[C@]4(C)[C@H]3CC[C@]12C [FINASTERIDE] | Inactive | 1.1 | >= 4 | Inactive | 2.7 | >= 4 | 0 | 0 | Inactive | Inactive | 2.7 | >= 4 | Inactive | 1 | >= 4 | Inactive | 2.5 | >= 4 |  |  |  |
| O=C(NCC1CCCCN1)c1cc(OCC(F)(F)F)ccc1OCC(F)(F)F (configuration not stated) [FLECAINIDE] | Marginally Active | 3.2 | >= 4 | Active | 8.3 | >= 4 | 3 | 1 | Active | Active | 9.6 | >= 4 | Inactive | 0 | < 4 | Active | 8.3 | >= 4 |  |  |  |
| Cn1cc([S+](C)[O-])c(=O)c2ccc(F)cc21 (configuration not stated) [FLOSEQUINAN] | Active | 56.6 | >= 4 | Inactive | 28.3 | < 4 | 1 | 0 | Inactive | Inactive | 28.3 | < 4 | Inactive | 0 | < 4 | Inactive | 14.1 | < 4 |  |  |  |
| OC(Cn1cncn1)(Cn1cncn1)c1ccc(F)cc1F [FLUCONAZOLE] | Marginally Active | 3 | >= 4 | Active | 9.1 | >= 4 |  |  |  | Active | 9.8 | >= 4 | Active | 4.2 | >= 4 | Active | 8.4 | >= 4 | 4 | 1 | Composite Activity - Score ([3]; Liver): Active |
